Assay results reported in US10093629B2, “Heterocyclic compounds and their use as retinoid-related orphan receptor (ROR) gamma-T inhibitors” (Takeda Pharmaceutical Company Limited, priority 2014, dated 2018).
Like-named read-outs stand apart in the source and are kept apart here.

Columns and labels:
RORγt [1] = molecular target: T1, RORγt (Homo sapiens, UniProt P51449); experiment: Cofactor recruitment test (Alpha Screen, biotinylated SRC-1 peptide); type: biochemical; settings: for inhibition at 1 µM: read-out: signal value inhibitory rate at test compound 1 μM
T1 sequence (P51449 1-497 isoform P51449-2): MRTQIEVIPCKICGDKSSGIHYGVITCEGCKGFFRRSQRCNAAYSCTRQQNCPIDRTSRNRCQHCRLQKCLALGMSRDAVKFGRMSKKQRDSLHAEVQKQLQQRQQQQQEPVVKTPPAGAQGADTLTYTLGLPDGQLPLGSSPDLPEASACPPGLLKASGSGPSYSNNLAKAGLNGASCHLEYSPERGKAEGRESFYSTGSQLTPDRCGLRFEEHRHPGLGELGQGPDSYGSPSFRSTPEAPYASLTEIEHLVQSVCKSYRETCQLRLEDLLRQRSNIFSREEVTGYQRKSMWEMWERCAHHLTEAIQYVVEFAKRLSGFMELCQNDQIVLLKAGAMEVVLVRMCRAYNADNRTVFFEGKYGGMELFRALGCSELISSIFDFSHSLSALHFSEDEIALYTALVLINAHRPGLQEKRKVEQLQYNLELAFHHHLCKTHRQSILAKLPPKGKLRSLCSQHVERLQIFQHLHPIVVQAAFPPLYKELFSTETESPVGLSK
Procedure: Cofactor Recruitment Test
Cofactor recruitment test was performed by Alpha Screen (Histidine Detection Kit, PerkinElmer) method. First, a test compound was diluted with an assay buffer (50 mM Tris-HCl (pH 7.5), 50 mM KCl, 1 mM DTT, 0.1% BSA) and added to a 384 well plate by 5 μL. […] The mixture was stood in a dark place for 1 hr, and the signal value was measured by Envision (PerkinElmer).

RORγt [2] = molecular target: T1, RORγt; experiment: RORγt binding test using fluorescent-labeled synthetic ligand (TR-FRET); settings: for inhibition at 1 µM: read-out: binding inhibitory rate of fluorescent-labeled synthetic ligand to RORγt at test compound 1 μM
Procedure: RORγt Binding Test using Fluorescent-Labeled Synthetic Ligand
The binding activity of the test compound to RORγt was measured by a time resolved fluorescence resonance energy transfer method (TR-FRET) utilizing histidine-tagged RORγt, fluorescent-labeled synthetic ligand and terbium-labeled anti-histidine tag antibody (Invitrogen). First, a test compound diluted with an assay buffer (20 mM Tris-HCl (pH 7.5), 100 mM NaCl, 1 mM DTT, 0.1% BSA) was added to a 384 well plate by 3 μL. Then, RORγt diluted with an assay buffer to 240 nM was added by 3 μL, after which fluorescent-labeled synthetic ligand diluted with the assay buffer to 12 μM was added by 3 μL, and the mixture was stood at room temperature for 20 min. Thereafter, a terbium-labeled anti-histidine tag antibody diluted with the assay buffer to 8 nM was added by 3 μL. The mixture was stood at room temperature for 20 min, and fluorescence intensity (excitation wavelength 320 nm, fluorescence wavelength 520 nm, delay time 100 microseconds) was measured by Envision (PerkinElmer).

RORγt [3] = molecular target: T1, RORγt; experiment: Jurkat reporter test (human IL-17 ROR response element luciferase, RORγt vector); type: cell-based; settings: Jurkat cells; for inhibition at 3 µM: test compound 3 μM, read-out: luminescence level inhibitory rate at test compound 3 μM
Procedure: The Jurkat cells used for the reporter test were cultured in a culture medium (RPMI (Invitrogen), 10% FCS (AusGeneX), 100 U/mL penicillin, 100 μg/mL streptomycin). On the day of the test, 4×10^7 cells were recovered by a centrifugal operation (1000 rpm, 5 min.) and suspended in PBS (phosphate buffered saline) (Invitrogen). Thereafter, the cells were recovered again by a centrifugal operation, and suspended in 2 mL of R buffer (NEON transfection kit, Invitrogen). […] Gene transfer was performed by Electroporation apparatus (NEON, Invitrogen) under the conditions of pulse voltage 1350 V, interval 10 milliseconds, number of times 3. The cells after gene transfer were suspended in 40 mL of a reaction medium (RPMI, 10% Lipid reduced FCS (HyClone), 10 mM HEPES (pH 7.5), 100 U/mL penicillin, 100 μg/mL streptomycin, 5 μM lovastatin), and plated in a 96 well plate by 90 μL. A test compound diluted with the reaction medium was added by 10 μL, and the cells were cultured overnight in an incubator. Bright-Glo (Promega) was added by 100 μL, and the mixture was stirred at room temperature for 10 min, and the luminescence level was measured by Envision (PerkinElmer).

Row | SMILES | inhibition at 1 µM (RORγt [1]) | inhibition at 1 µM (RORγt [2]) | inhibition at 3 µM (RORγt [3]) | inhibition at 1 µM (RORγt [1]; test compound 1 μM) | inhibition at 1 µM (RORγt [2]; test compound 1 μM) | inhibition at 3 µM (RORγt [3]; Jurkat) | further results
1 | COc1ccc2c(c1)CCN(C(=O)C1CC1C(=O)O)[C@H]2C(=O)Nc1cc(F)c([Si](C)(C)C)c(F)c1 (single isomer, unassigned) [Example 3] | 84% | 102% | 97% |  |  |  | 
2 | COc1ccc2c(c1)CCN(C(=O)[C@H]1C[C@H](C(=O)O)C1)[C@H]2C(=O)Nc1cc(F)c([Si](C)(C)C)c(F)c1 [Example 12, trans-3-(((1R)-1-((3,5-difluoro-4-(trimethylsilyl)phenyl)carbamoyl)-6-methoxy-3,4-dihydroisoquinolin-2(1H)-yl)carbonyl)cyclobutanecarboxylic acid] | 91% | 102% | 99% |  |  |  | 
3 | COc1ccc2c(n1)CCN(C(=O)[C@@H]1C[C@H]1CC(=O)O)[C@H]2C(=O)Nc1cc(F)c([Si](C)(C)C)c(F)c1 [Example 14, ((1S,2R)-2-(((5R)-5-((3,5-difluoro-4-(trimethylsilyl)phenyl)carbamoyl)-2-methoxy-7,8-dihydro-1,6-naphthyridin-6(5H)-yl)carbonyl)cyclopropyl)acetic acid] | 86% | 101% | 100% |  |  |  | 
4 | CCOc1ccc2c(c1)CCN(C(=O)[C@H]1C[C@@H](CC(=O)O)C1)[C@H]2C(=O)Nc1cc(F)c(C(C)(C)COC)c(F)c1 [Example 17, (cis-3-(((1R)-1-((3,5-difluoro-4-(1-methoxy-2-methylpropan-2-yl)phenyl)carbamoyl)-6-ethoxy-3,4-dihydroisoquinolin-2(1H)-yl)carbonyl)cyclobutyl)acetic acid] |  |  |  | 85% | 101% | 99% | 
5 | COc1ccc2c(c1)CCN(C(=O)[C@H]1C[C@H](CC(=O)O)C1)[C@H]2C(=O)Nc1cc(F)c([Si](C)(C)C)c(F)c1 [Example 27, (trans-3-(((1R)-1-((3,5-difluoro-4-(trimethylsilyl)phenyl)carbamoyl)-6-methoxy-3,4-dihydroisoquinolin-2(1H)-yl)carbonyl)cyclobutyl)acetic acid] | 91% | 102% | 103% |  |  |  | 
6 | COc1ccc2c(c1)CCN(C(=O)[C@@H]1C[C@H]1CC(=O)O)[C@H]2C(=O)Nc1cc(F)c([Si](C)(C)C)c(F)c1 [Example 30, ((1S,2R)-2-(((1R)-1-((3,5-difluoro-4-(trimethylsilyl)phenyl)carbamoyl)-6-methoxy-3,4-dihydroisoquinolin-2(1H)-yl)carbonyl)cyclopropyl)acetic acid] | 90% | 101% | 100% |  |  |  | 
7 | COc1ccc2c(c1)CCN(C(=O)[C@H]1C[C@H](CC(=O)O)C1)[C@H]2C(=O)Nc1ccc([Si](C)(C)C)c(F)c1 [Example 34, (trans-3-(((1R)-1-((3-fluoro-4-(trimethylsilyl)phenyl)carbamoyl)-6-methoxy-3,4-dihydroisoquinolin-2(1H)-yl)carbonyl)cyclobutyl)acetic acid] | 88% | 102% | 100% |  |  |  | 
8 | COCC(C)(C)c1c(F)cc(NC(=O)[C@H]2c3ccc(OC)cc3CCN2C(=O)[C@H]2C[C@@H](CC(=O)O)C2)cc1F [Example 35, (cis-3-(((1R)-1-((3,5-difluoro-4-(1-methoxy-2-methylpropan-2-yl)phenyl)carbamoyl)-6-methoxy-3,4-dihydroisoquinolin-2(1H)-yl)carbonyl)cyclobutyl)acetic acid] |  |  |  | 83% | 102% | 99% | 
9 | COc1ccc2c(n1)CCN(C(=O)[C@H]1C[C@@H](C(=O)OCc3ccccc3)C1)[C@H]2C(=O)Nc1cc(F)c2c(c1)CCC2(C)C [Example 36, benzyl cis-3-(((5R)-5-((7-fluoro-1,1-dimethyl-2,3-dihydro-1H-inden-5-yl)carbamoyl)-2-methoxy-7,8-dihydro-1,6-naphthyridin-6(5H)-yl)carbonyl)cyclobutanecarboxylate] |  |  |  | 72% | 102% | 102% | 
10 | COc1ccc2c(n1)CCN(C(=O)[C@H]1C[C@@H](CC(=O)OCc3oc(=O)oc3C)C1)[C@H]2C(=O)Nc1cc(F)c2c(c1)CCC2(C)C [Example 38, (5-methyl-2-oxo-1,3-dioxol-4-yl)methyl (cis-3-(((5R)-5-((7-fluoro-1,1-dimethyl-2,3-dihydro-1H-inden-5-yl)carbamoyl)-2-methoxy-7,8-dihydro-1,6-naphthyridin-6(5H)-yl)carbonyl)cyclobutyl)acetate] |  |  |  | 61% | 102% | 102% | 
11 | CCOC(=O)C[C@H]1C[C@@H](C(=O)N2CCc3nc(OC)ccc3[C@@H]2C(=O)Nc2cc(F)c3c(c2)CCC3(C)C)C1 [Example 39, ethyl (cis-3-(((5R)-5-((7-fluoro-1,1-dimethyl-2,3-dihydro-1H-inden-5-yl)carbamoyl)-2-methoxy-7,8-dihydro-1,6-naphthyridin-6(5H)-yl)carbonyl)cyclobutyl)acetate] |  |  |  | 63% | 101% | 103% | 
12 | COCc1ccc2c(c1)CCN(C(=O)[C@H]1C[C@@H](CC(=O)O)C1)[C@H]2C(=O)Nc1cc(F)c2c(c1)CCC2(C)C [Example 40-A, monopotassium (cis-3-(((1R)-1-((7-fluoro-1,1-dimethyl-2,3-dihydro-1H-inden-5-yl)carbamoyl)-6-(methoxymethyl)-3,4-dihydroisoquinolin-2(1H)-yl)carbonyl)cyclobutyl)acetate acetonitrile solvate] |  |  |  |  |  |  | signal value inhibitory rate at test compound 1 μM (RORγt [1]; test compound 1 μM, 1 µM): 87%; binding inhibitory rate of fluorescent-labeled synthetic ligand to RORγt at test compound 1 μM (RORγt [2]; test compound 1 μM, 1 µM): 102%; luminescence level inhibitory rate at test compound 3 μM (RORγt [3]; 3 µM): 104%
13 | COc1ccc2c(n1)CCN(C(=O)[C@H]1C[C@@H](C(=O)OCc3oc(=O)oc3C)C1)[C@H]2C(=O)Nc1cc(F)c2c(c1)CCC2(C)C [Example 44, (5-methyl-2-oxo-1,3-dioxol-4-yl)methyl cis-3-(((5R)-5-((7-fluoro-1,1-dimethyl-2,3-dihydro-1H-inden-5-yl)carbamoyl)-2-methoxy-7,8-dihydro-1,6-naphthyridin-6(5H)-yl)carbonyl)cyclobutanecarboxylate] |  |  |  | 61% | 102% | 102% | 
14 | COC(=O)C[C@H]1C[C@@H](C(=O)N2CCc3nc(OC)ccc3[C@@H]2C(=O)Nc2cc(F)c3c(c2)CCC3(C)C)C1 [Example 45, methyl (cis-3-(((5R)-5-((7-fluoro-1,1-dimethyl-2,3-dihydro-1H-inden-5-yl)carbamoyl)-2-methoxy-7,8-dihydro-1,6-naphthyridin-6(5H)-yl)carbonyl)cyclobutyl)acetate] |  |  |  | 66% | 101% | 101% | 
15 | COc1ccc2c(n1)CCN(C(=O)[C@H]1C[C@@H](C(=O)OC)C1)[C@H]2C(=O)Nc1cc(F)c2c(c1)CCC2(C)C [Example 46, methyl cis-3-(((5R)-5-((7-fluoro-1,1-dimethyl-2,3-dihydro-1H-inden-5-yl)carbamoyl)-2-methoxy-7,8-dihydro-1,6-naphthyridin-6(5H)-yl)carbonyl)cyclobutanecarboxylate] |  |  |  | 69% | 102% | 102% | 
